In publication PMC12355554, “Development of novel mitochondrial pyruvate carrier inhibitors for breast cancer treatment” (The Journal of Biological Chemistry, 2025):
“Also recorded” adds a separate entry of the source.

What was measured:
[1] = Intrinsic CL in human liver microsomes; assay type: in vitro ADME
4T1 = assay: Sulforhodamine B cell proliferation inhibition assay, 4T1; assay type: cell-based, murine; conditions: Mus musculus, 72 h, average ± SEM
Procedure: Cells were seeded (3 × 10^4 cells/well) in 48-well plates and incubated overnight (37 °C, 5% CO2). Test compounds were then exposed to cells in duplicate in serial dilution fashion and were incubated for an additional 72 h (37 °C, 5% CO2). Media were then aspirated, and cells were washed three times with cold PBS and left overnight to dry fix. […] Dyed cells were then lysed with Tris (10 mM, pH 10), and absorbance readings were recorded at 540 nm of each well. Treatment absorbances are taken as percentages of the average untreated absorbances and plotted against log(concentration) in GraphPad Prism 10 to generate effective concentration values where 50% of the cells are not proliferating (EC50).

[2] = test system: succinate-driven respiration in 4T1 cells; assay: Seahorse succinate-driven respiration in permeabilized 4T1 cells; assay type: cell-based, murine; conditions: candidate compounds 1 μM
Source text: Although our initial experiments and previous literature illustrate the ability of the candidate compounds to inhibit Pyr-driven respiration, we sought to investigate the ability of candidate compounds to inhibit respiration fueled by other metabolic substrates, glutamate and succinate (Fig. 2). Glutamate, similar to Pyr oxidation, results in NADH equivalents that fuel complex I-mediated respiration, and succinate metabolism offers FADH2 for electrons in complex II-driven respiratory processes. […] To further validate the mode of action of the candidate compounds, a series of similar Seahorse experiments were employed (Fig. 2, A–C). In these experiments, 4T1 cells were first permeabilized and were then offered metabolic substrates Pyr (Pyr/Mal; Fig. 2A), glutamate (Glu/Mal, Fig. 2B), or succinate (Fig. 2C), and the resulting OCR was observed. As described previously, Mal and DCA were included in the substrate milieu of glutamate respiration experiments. […] To validate that inhibition of Pyr respiration is due to mitochondrial Pyr uptake and not other Pyr-processing enzymes (i.e., Pyr dehydrogenase), a parallel experiment using methyl pyruvate (MePyr) was employed (Fig. 2, E and F). MePyr is permeable to the mitochondrial membranes, where in the matrix, mitochondrial esterase hydrolysis activity provides Pyr.
Permeabilized cell assays were performed using rPFO as described previously. 4T1 cells were seeded (20,000 cells/well) onto Seahorse XFe96 well plates and incubated overnight in growth media at 37 °C and 5% CO2 for adherence. On the day of the assay, growth media were aspirated and replaced with MAS buffer (70 mM sucrose, 220 mM mannitol, 10 mM potassium phosphate monobasic, 5 mM magnesium chloride, 2 mM Hepes, and 1 mM EGTA) after 3X rinse of growth media to remove serum and endogenous metabolic substrates, and incubated at 37 °C in a non-CO2 incubator. Respective inhibitor and substrate milieu's were prepared in MAS buffer for port injections A–D at 8X, 9X, 10X, and 11X the target cell concentrations to account for intrinsic dilution factor of in situ injections of each port. […] Final substrate concentrations for specific tests were as follows: (5 mM Pyr , 0.5 mM Mal, 2 mM DCA; 10 mM glutamate, 0.5 mM Mal, 2 mM DCA; 10 mM succinate, 2 μM rotenone; 20 mM methyl Pyr, 5 mM Pyr, 0.5 mM Mal, and 2 mM DCA). ATP rate assays and mitochondrial stress tests were performed according to the manufacturer's (Agilent) instructions.

[3] = test system: MPC or MCT expression levels; assay: Western blotting of MPC and MCT expression; assay type: cell-based; conditions: Western blot
Procedure: After denaturation at 95 °C for 10 min in radioimmunoprecipitation buffer, protein concentration was determined and equilibrated using the bicinchoninic acid assay (ThermoScientific), and 20 μg of protein was separated by electrophoresis in 4 to 12% polyacrylamide gels. Proteins were electrophoretically transferred to polyvinylidene fluoride membranes for 90 min at 100 V and stained with Ponceau to verify transfer quality and equal protein loading. […] Santa Cruz, catalog no.: sc-365501, 1:1000 dilution; MCT4, Santa Cruz, catalog no.: sc-376140, 1:1000 dilution; MPC1, Cell Signaling, 1:1000 dilution, catalog no.: 14462; MPC2, Cell Signaling, 1:1000 dilution, catalog no.: 46141; […] TBST, 0.5% nonfat milk protein). Membranes were rinsed three times with TBST and incubated with the respective secondary goat antimouse IgG (1:10,000 dilution) or goat anti-rabbit IgG (1:10,000 dilution) horseradish peroxidase–conjugated antibodies (Cell Signaling). Membranes were again washed three times with TBST and exposed to SuperSignal 60 West luminol enhancer and stable peroxide solution (ThermoScientific) for 2 min. Chemiluminescent images were obtained using a LicorFC imager. Images shown are representative of two separate experiments obtained from independent biological samples.

4T1 tumor = assay: Tumor efficacy study in a 4T1 syngraft; conditions: 5 mg/kg daily for 11 days

Structure (SMILES): CN(Cc1ccc(C(F)(F)F)cc1)c1ccc2cc(C(=O)O)c(=O)oc2c1.NC(CO)(CO)CO [C5, 1,3-dihydroxy-2-(hydroxymethyl)propan-2-aminium 7-(methyl(4-(trifluoromethyl)benzyl)amino)-2-oxo-2H-chromene-3-carboxylate]
- increase in Clint compared with C3 ([1]; human liver microsomes): two-fold
- half-life ([1]; human, liver microsomes, exceeding the experimental endpoints): > 2 h
- EC50 (4T1): 67.9 ± 7.3 µM
- effect on succinate-driven respiration [2]: does not alter; also recorded: did not alter
- effect on MPC or MCT expression levels [3]: does not alter
- mouse body weight (4T1 tumor): remained constant
- reduction in tumor mass compared with vehicle (4T1 tumor; BALB/c): ~41%
- reduction in tumor volume compared with vehicle (4T1 tumor; BALB/c): ~20%
